Measured values: PMC8079784, “The Mechanism of Action of Antigen Processing Independent T Cell Epitopes Designed for Immunotherapy of Autoimmune Diseases” (Frontiers in Immunology, 2021)

Experiments:
[1] = test system: autoimmune hemolytic anemia; conditions: cited from earlier work
From the text: Previously we have shown that the impact of CD4 T cell epitope administration in the absence of adjuvant depends on peptide solubility. […] Importantly, however, addition of charged residues at the N- and C-termini of the band 3 epitope rendered it both soluble and immuno-modulatory. Unlike the insoluble 861-874 that both primed band 3 reactive inflammatory T cells and promoted generation of pathogenic ...

serum IL-10 = test: Serum IL-10 during dose escalation of SC peptide; format: in vivo, mouse (Tg4); conditions: Tg4 mice, SC dose escalation 0.08 to 80µg every 3rd or 4th day
Protocol: (§1) Tg4 mice were primed with a single dose (80μg) of 4Y in PBS by SC injection. Tolerance induction involved escalating dose immunotherapy (EDI) whereby each Tg4 or tiger-Tg4 mouse was treated with 0.08, 0.8, 8, 80, 80 and 80μg 4Y in PBS by SC injection at the right-side flank every 3rd or 4th day ([20]).
(§2) MFBI Th1/Th2 Flow Cytomix Multiplex kits (eBioscience) were used to measure the concentration of cytokines in the serum 2 h after s.c. treatment with soluble peptide.
(§3) Figure 3 Impact of soluble versus insoluble peptide treatment on T cell function in Tg4 mice. A single SC dose of soluble 4Y (80µg) induces rapid and high levels of IL-2 into the serum of Tg4 mice (A) when compared to insoluble 4Y-3LF (B). For the data shown in (C), Tg4 mice received a SC injection of 80µg MBP Ac1-9[4Y] or 4Y-3LF. Blood was removed from the tail vein at the specified times following injection, baseline was taken prior to peptide injection and the cellular fraction was stained for flow cytometry. Inguinal lymph node (ILN), brachial lymph node (BLN) and spleen were collected at 48–hours. Percentages of CD4^+ cells were gated on live singlets. […] (*p ≤ 0.05, **p ≤ 0.01, ***p ≤ 0.001, ****p ≤ 0.0001). […] Tg4 mice were given SC injections of PBS containing the indicated doses of 4Y peptide given every 3rd or 4th day (2 doses per week).

splenic CD11c+ DC = test: In vivo APC targeting after SC peptide: ex vivo presentation to naive Tg4 CD4+ T cells; parameters: species or system mouse (B10.PL); conditions: 80µg SC, proliferation of Tg4 CD4+ T cells in vitro
From the text: CD11c^+ cells were isolated from whole splenocytes in MACS buffer using the CD11c microbead positive selection kit (Miltenyi Biotec, Surrey, UK) as per the manufacturer’s instructions. Single cell suspensions were used for magnetic selection using the EasySep Mouse B Cell Isolation kit or EasySep Mouse Monocyte Enrichment kit (both Stemcell Technologies, Grenoble, France) as per the manufacturer’s instructions. In the B10.PL APC targeting experiments, single cell suspensions (without digestion) of Tg4 splenocytes were counted and T cells isolated using Magnisort® Mouse CD4 T cell isolation kit (affymetrix, eBioscience, Hatfield, UK) as per the manufacturer’s instructions. Cells were either enriched by magnetic sorting prior to fluorescence-activated cell sorting (FACS) or sorted from splenocytes. […] Peptide bound to APC was detected in vitro by activation of naïve Tg4 cells, as evidenced through ^3H.thymidine incorporation. […] Peptide bound to APC was detected in vitro by activation of CD4^+ T cells from the lymph nodes and spleen of HLA-DR3 transgenic mice immunized with the 5D peptide in CFA. T cell activation was detected by interferon gamma secretion over 3 days.
Proliferation was assessed by tritiated thymidine (^3H-TdR) incorporation with either whole splenocytes or isolated APC populations and antigen-specific Tg4 responder CD4^+ T cells. […]

CD4 cells = test: Intracellular cytokine staining of spleen cells for IL-10 after dose escalation; format: in vivo, mouse (Tg4); conditions: Tg4 mice, after the final 80 µg dose of dose escalation
Protocol: as §1
Intracellular cytokine staining of splenocytes was performed after a 3-h stimulation with phorbol 12-myristate 13-acetate (5ng/ml) and ionomycin (500ng/ml) (both Sigma-Aldrich) with GolgiStop (BD Biosciences). Cells were stained with Vβ8-FITC (clone KJ16-133, diluted 1:100) or with fixable viability dye eFluor780 (1:1,000) before surface staining with CD4-Alexa700 (GK1.5, 1:100) and fixation using IC fixation buffer (all from eBioscience). Antibodies for intracellular cytokine staining were diluted in permeabilization buffer; IL-10-allophycocyanin (APC) (JES5-16E3, 1:200), IFN-γ-PerCP-Cy5.5 (XMG1.2, 1:200) (both from eBioscience). Data were collected using an LSR II flow cytometer (BD Biosciences) and analyzed using FlowJo software (Treestar).

serum IL-2 = test: Serum IL-2 after a single SC dose of peptide; format: in vivo, mouse (Tg4); conditions: Tg4 mice, single SC dose 80µg
Protocol: as §1, §2, §3

Tg4 splenocytes = test: In vitro antigenicity: proliferation of Tg4 splenocytes (3H-TdR); format: cell-based, mouse; conditions: 2x10^5 per well, 3H-TdR at d3; limiting dose 1 ng/ml
Protocol: Proliferation was assessed by tritiated thymidine (^3H-TdR) incorporation with either whole splenocytes or isolated APC populations and antigen-specific Tg4 responder CD4^+ T cells. Tg4 whole splenocytes were cultured in 96-well round bottom plates, 2x10^5 whole splenocytes per well, with addition of the indicated concentration of the relevant peptide. Whole splenocytes from B10.PL mice that had received CD4^+ CD45.1^+ T cells followed by CD11c^+ cells were cultured in 48–well plates at 1.25x10^6 per well. Isolated populations were plated out at 5x10^4/well CD4^+ T cells, with either equal numbers of CD11c^+ DC, B cells or monocytes enriched as specified. Cells were cultured at 37°C, 5% CO2. At 24 and 72 hours, supernatant was taken for cytokine analysis and medium was supplemented with 0.5µCi ^3H-TdR (GE Healthcare Lifesciences, UK) for 16 hours. Plates were frozen at –20°C in preparation for later harvesting with a Tomtec harvester onto filter papers (Cox Scientific, Kettering, UK). Levels of incorporated radioactivity were assessed from the dried filter papers, sealed in sample bags (Wallac, Milton Keynes, UK) with 3ml scintillation fluid, ^3H-TdR incorporation was measured on a 1450 MicroBeta liquid scintillation counter (Wallac).

[2] = test system: lymph node cells or splenocytes; test: T cell anergy: ex vivo proliferation of lymph node cells or splenocytes after dose escalation; format: in vivo, mouse (Tg4); conditions: Tg4 mice, six escalating SC doses, cells three days after sixth dose, 3H-TdR at 72 hours
Protocol: as §1
Proliferation was assessed by tritiated thymidine (^3H-TdR) incorporation with either whole splenocytes or isolated APC populations and antigen-specific Tg4 responder CD4^+ T cells. Tg4 whole splenocytes were cultured in 96-well round bottom plates, 2x10^5 whole splenocytes per well, with addition of the indicated concentration of the relevant peptide. Whole splenocytes from B10.PL mice that had received CD4^+ CD45.1^+ T cells followed by CD11c^+ cells were cultured in 48–well plates at 1.25x10^6 per well. […] Levels of incorporated radioactivity were assessed from the dried filter papers, sealed in sample bags (Wallac, Milton Keynes, UK) with 3ml scintillation fluid, ^3H-TdR incorporation was measured on a 1450 MicroBeta liquid scintillation counter (Wallac).
Figure 2 Peptide solubility predicts accessibility to steady state DC and determines tolerance induction: The 4Y peptide was rendered increasingly insoluble by addition of LF motifs. […] Proliferation was measured by tritiated thymidine (^3H-TdR) incorporation at 72 hours. […]

Substance | Effect of intranasal administration in NZB mice ([1]; intranasal, no adjuvant) | Solubility of band 3 peptide ([1]; mouse, in vivo) | IL-10 detectable in serum (serum IL-10) | Presentation by splenic CD11c+ DC collected 2h after SC administration (splenic CD11c+ DC) | CD4 cells producing IL-10 (intracellular cytokine staining of spleen cells) (CD4 cells) | Time of peak serum IL-2 after SC injection (serum IL-2) | Antigenicity: proliferation of Tg4 splenocytes in vitro (Tg4 splenocytes) | Ex vivo proliferation of lymph node cells or splenocytes stimulated with the Ac1-9 peptide [2]
861-874: insoluble peptide epitope from the red blood cell band 3 protein (FVLILTVPLRRVLL; UniProt P02730 861-874, looked up, fragment) [Peptide 861-874] | promote autoimmunity | insoluble | – | – | – | – | – | –
Ac-ASQYRPSLFLFLF-NH2 [Peptide 4Y-3LF] | – | – | No IL-10 was detectable | barely detectable | close to background levels | 8 h | significantly weaker | partially suppressed
